# Assays:
# [1] = Mouse body weight under bosentan monotherapy; type: in vivo, mice; conditions: bosentan monotherapy at any dose
# Procedure: Mice bearing syngeneic, orthotopic triple negative breast cancer (TNBC) were treated with a range of sub-therapeutic doses of bosentan, from 0.2 mg/kg to 10 mg/kg of body weight. Orthotopic models for murine mammary tumors were generated by implantation of 5×10^4 4T1 or E0771 cancer cells in 40 μl of serum-free medium into the third mammary fat pad of 6-8-week-old BALB/c and C57BL/6 female mice, respectively. 4T1 (ATCC® CRL-2539TH) and E0771 (94A001, CH3 BioSystems) mouse breast adenocarcinoma cell lines were purchased form ATCC and CH3 BioSystems, respectively. The cells were maintained at 37° C./5% CO2 in Roswell Park Memorial Institute medium (RPMI-1640, LM-R1637, Biosera) supplemented with 10% fetal bovine serum (FBS, FB-1001H, biosera) and 1% antibiotics (A5955, Sigma). Bosentan (bosentan Hydrate (S3051, Selleckchem) was dissolved in ddH2O containing 2% DMSO (GK2245, Glentham Life Science), 30% PEG300 (S6704, Selleckchem) and 2% Tween 80 (S6702, Selleckchem)) 1 mg/kg, 5 mg/kg, 10 mg/kg or equal volume of diluent (control group) was administered by intraperitoneal injection (i.p.) once a day for 10 days, starting from once the tumor volumes reached an average size of 100 mm^3. Tumors were excised when they reached an average size of 500 mm^3. Tissue stiffness was then measured non-invasively and longitudinally using ultrasound elastography. […]
# E0771 cancer cells = test: Rechallenge of surviving mice with a second tumor cell inoculation; type: in vivo
# Procedure: (§1) To determine if a stiffness-reducing and hypoxia-reducing (blood flow-increasing) regimen of bosentan could enhance the efficacy of an ICB cocktail of anti-PD-1 (mouse monoclonal anti-PD-1 CD279, clone RMP1-14, BioXCell) and anti-CTLA-4 (mouse monoclonal anti-CTLA-4 CD152, clone 9D9, BioXCell) antibodies, mice bearing primary tumors in a neo-adjuvant setting were administered various treatments. Therapy was administered before removing the primary tumors surgically to assess mice survival against spontaneous metastases that arose on treatment. For the combinatorial treatment with bosentan and Immunotherapy studies, bosentan 1 mg/kg or equal volume of diluent (control group) was administered by intraperitoneal injection (i.p.) once a day for 14 days, starting from once the tumor volumes reached an average size of 5 mm diameter. Immunotherapy was administrated as a cocktail of 10 mg/kg anti-PD-1 (CD279, clone RMP1-14, BioXCell) and 5 mg/kg anti-CTLA-4 (CD152, clone 9D9) following dilution in the recommended InVivoPure pH 7.0 Dilution Buffer (BioXCell). […] Planar dimensions (x, y) of tumor were monitored every 2-3 days using a digital caliper and tumor volume was estimated from the volume of an ellipsoid and assuming that the third dimension, z, is equal to x y. […]
# E0771 tumors = test: Primary tumor growth, bosentan plus ICB cocktail, neo-adjuvant setting; type: in vivo, mice; conditions: 1 mg/kg bosentan combined with ICB cocktail (10 mg/kg anti-PD-1, 5 mg/kg anti-CTLA-4); n=10
# Procedure: as §1
# 4T1 tumors = test: as above; type: in vivo, mice; conditions: 1 mg/kg bosentan combined with ICB cocktail (10 mg/kg anti-PD-1, 5 mg/kg anti-CTLA-4); n=8-10
# Procedure: as §1
structure (smiles),measurement,setting,value
"COc1ccccc1Oc1c(NS(=O)(=O)c2ccc(C(C)(C)C)cc2)nc(-c2ncccn2)nc1OCCO [bosentan, 4-tert-butyl-N-[6-(2-hydroxy-ethoxy)-5-(2-methoxy-phenoxy)-2-(pyrimidin-2-yl)pyrimidin-4-yl] benzenesulfonamide]",mouse body weight,[1],did not affect
same,mice with tumors appearing after rechallenge,E0771 cancer cells; five surviving mice (bosentan plus ICB) rechallenged,two out of the five
same,tumor growth rate after rechallenge,E0771 cancer cells; five surviving mice (bosentan plus ICB) versus healthy age-matched control mice,grew much slower
same,tumor growth,E0771 tumors,potentiated tumor growth inhibition
same,tumor growth,4T1 tumors,potentiated tumor growth inhibition

# Reference: patent US20240024317A1, “CANCER TREATMENT USING BOSENTAN IN COMBINATION WITH A CHECKPOINT INHIBITOR” (Materia Therapeutics Inc., priority 2020, published 2024)
